Literature values as cited in patent publication US20200254068A1, “METHODS FOR TREATING TRAUMATIC BRAIN INJURY” (LOMA LINDA UNIVERSITY, priority 2017, published 2020).

Conditions: given acutely, goal of reducing cerebral edema

Compound	mortality rate in clinical TBI trials	outcome in clinical TBI trials
C[C@@H]1C[C@H]2[C@@H]3CCC4=CC(=O)C=C[C@]4(C)[C@@]3(F)[C@@H](O)C[C@]2(C)[C@@]1(O)C(=O)CO [dexamethasone]	increase the mortality rate	–
CC(=O)[C@H]1CC[C@H]2[C@@H]3CCC4=CC(=O)CC[C@]4(C)[C@H]3CC[C@]12C [progesterone]	–	unsuccessful
